Laboratory results: ChEMBL document CHEMBL1201862, “PubChem BioAssay data set” (2004)
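These data come from cells grown in 96-well plates and exposed to compound for 48 hours at five concentrations. At the GI50, growth is halved.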 Calls of active or inactive are those of the source. Cut-off read from the data, not from the text of the source: active = GI50 up to about 1.1 µM and inactive = higher.

What was measured:
Test in all cases: DTP human tumour cell line panel, 48 h
SF-268 = system: SF-268
HT-29 = system: HT-29
DU-145 = system: DU-145
Hs-578T = system: Hs-578T
MDA-N = system: MDA-N
KM12 = system: KM12
NCI/ADR-RES = system: NCI/ADR-RES
LOX IMVI = system: LOX IMVI
A549 = system: A549
OVCAR-4 = system: OVCAR-4
SNB-19 = system: SNB-19
SN12C = system: SN12C
SK-OV-3 = system: SK-OV-3
HCC 2998 = system: HCC 2998
T47D = system: T47D
SNB-75 = system: SNB-75
OVCAR-8 = system: OVCAR-8
SK-MEL-2 = system: SK-MEL-2
NCI-H460 = system: NCI-H460
HL-60 = system: HL-60

Measured: GI50

CCOC1OCCCC1Br (configuration not stated)
inactive: SF-268 > 100 µM | HT-29 > 100 µM | DU-145 > 100 µM | Hs-578T > 100 µM | MDA-N > 100 µM | KM12 > 100 µM | NCI/ADR-RES > 100 µM | LOX IMVI > 100 µM | A549 > 100 µM | OVCAR-4 > 100 µM | SNB-19 > 100 µM | SN12C > 100 µM | SK-OV-3 > 100 µM | HCC 2998 > 100 µM | T47D > 100 µM | SNB-75 > 100 µM | OVCAR-8 > 100 µM | SK-MEL-2 > 100 µM | NCI-H460 > 100 µM

O=C(CCc1cc(O)cc(O)c1)NCCc1cc(O)cc(OCc2ccccc2)c1
inactive: SF-268 29.6 µM | HT-29 29 µM | DU-145 33.1 µM | Hs-578T 32.1 µM | MDA-N 27.5 µM | KM12 34 µM | NCI/ADR-RES > 100 µM | LOX IMVI 33.7 µM | A549 42.3 µM | SNB-19 26.4 µM | SN12C 39.3 µM | SK-OV-3 59.4 µM | HCC 2998 20.5 µM | T47D 34 µM | SNB-75 27.2 µM | OVCAR-8 34.3 µM | SK-MEL-2 44.8 µM | NCI-H460 20.4 µM

CC(=O)OCC1OC(OCCCOP(=S)(OCCC#N)OCC2OC(n3ccc(N)nc3=O)C(OC(=O)c3ccccc3)C2OC(=O)c2ccccc2)C(OC(C)=O)C(OC(C)=O)C1OC(C)=O (configuration not stated)
inactive: SF-268 > 100 µM | HT-29 > 100 µM | DU-145 > 100 µM | Hs-578T > 100 µM | MDA-N > 100 µM | KM12 > 100 µM | NCI/ADR-RES > 100 µM | LOX IMVI > 100 µM | A549 > 100 µM | OVCAR-4 > 100 µM | SNB-19 > 100 µM | SN12C > 100 µM | SK-OV-3 > 100 µM | HCC 2998 > 100 µM | T47D > 100 µM | SNB-75 75.5 µM | OVCAR-8 > 100 µM | SK-MEL-2 > 100 µM | NCI-H460 > 100 µM

CC(C)(C)C(=O)OCOP(=O)(OCOC(=O)C(C)(C)C)OCC1OC(n2ccc(=O)[nH]c2=O)C(N=[N+]=[N-])C1O (configuration not stated)
inactive: HT-29 3.44 µM | DU-145 4.94 µM | MDA-N 3.11 µM | KM12 3.11 µM | NCI/ADR-RES 7.74 µM | LOX IMVI 1.59 µM | A549 2.99 µM | OVCAR-4 3.13 µM | SNB-19 12.9 µM | SN12C 10.3 µM | HCC 2998 2.75 µM | HL-60 2.14 µM | T47D 1.48 µM | SNB-75 1.42 µM | OVCAR-8 3.06 µM | NCI-H460 3.08 µM
active: SF-268 0.757 µM | Hs-578T 0.804 µM

CCCOC(=O)c1cc(C(=CCC[C@H]2CC[C@@]3(C)[C@@H](CC[C@@H]4[C@@H]3CC[C@]3(C)[C@@H](C(C)CCCC(C)C)CC[C@@H]43)C2)c2cc(Cl)c(O)c(C(=O)OCCC)c2)cc(Cl)c1O (some centres not stated)
inactive: SF-268 > 50 µM | HT-29 > 50 µM | DU-145 > 50 µM | Hs-578T > 50 µM | MDA-N > 50 µM | KM12 > 50 µM | NCI/ADR-RES > 50 µM | LOX IMVI > 50 µM | OVCAR-4 > 50 µM | SNB-19 > 50 µM | SN12C > 50 µM | HCC 2998 > 50 µM | HL-60 > 50 µM | T47D > 50 µM | SNB-75 > 50 µM | OVCAR-8 > 50 µM | SK-MEL-2 > 50 µM | NCI-H460 > 50 µM

COC1(C)/C=N/CC(C)(C)NC(=O)C(C)(OC)/C=N/CC(C)(C)NC1=O (configuration not stated)
inactive: SF-268 > 10 µM | HT-29 > 10 µM | DU-145 > 10 µM | Hs-578T > 10 µM | MDA-N > 10 µM | KM12 > 10 µM | NCI/ADR-RES > 10 µM | A549 > 10 µM | OVCAR-4 > 10 µM | SNB-19 > 10 µM | SN12C > 10 µM | SK-OV-3 > 10 µM | HCC 2998 > 10 µM | HL-60 > 10 µM | T47D > 10 µM | SNB-75 > 10 µM | OVCAR-8 > 10 µM

C/C(=N\NC(=O)/C(C#N)=C\c1ccc(N(CCC#N)CCC#N)cc1)c1ccccc1
inactive: SF-268 > 10 µM | HT-29 > 10 µM | DU-145 > 10 µM | Hs-578T > 10 µM | MDA-N > 10 µM | KM12 > 10 µM | NCI/ADR-RES > 10 µM | LOX IMVI > 10 µM | A549 > 10 µM | OVCAR-4 > 10 µM | SNB-19 4.1 µM | SN12C > 10 µM | SK-OV-3 > 10 µM | HCC 2998 > 10 µM | HL-60 > 10 µM | T47D > 10 µM | SNB-75 > 10 µM | OVCAR-8 > 10 µM | NCI-H460 > 10 µM

CCOC(=O)c1[nH]cc(C)c1-c1ccc2c(-c3ccccc3)nc3ccccc3n12
inactive: SF-268 3.94 µM | HT-29 2.54 µM | DU-145 3.8 µM | Hs-578T 2 µM | MDA-N 2.66 µM | KM12 3.45 µM | NCI/ADR-RES 2.51 µM | LOX IMVI 3.44 µM | A549 3.77 µM | OVCAR-4 3.85 µM | SN12C 3.37 µM | SK-OV-3 4.4 µM | HCC 2998 2.26 µM | T47D 4.43 µM | SNB-75 1.85 µM | OVCAR-8 4.25 µM | SK-MEL-2 4.29 µM | NCI-H460 2.92 µM

COc1ccc(-n2cnc3c2=NC(C)(C)NC=3C(N)=O)c(OC)c1
inactive: SF-268 > 100 µM | HT-29 > 100 µM | DU-145 > 100 µM | Hs-578T > 100 µM | MDA-N > 100 µM | KM12 > 100 µM | NCI/ADR-RES > 100 µM | LOX IMVI > 100 µM | A549 > 100 µM | OVCAR-4 > 100 µM | SNB-19 > 100 µM | SN12C > 100 µM | SK-OV-3 > 100 µM | HCC 2998 > 100 µM | HL-60 > 100 µM | T47D > 100 µM | SNB-75 > 100 µM | OVCAR-8 > 100 µM | NCI-H460 > 100 µM

Cn1c(-c2ccc(-c3cc(-c4cccs4)c(-c4cccs4)n3C)cc2)cc(-c2cccs2)c1-c1cccs1
inactive: SF-268 > 100 µM | HT-29 > 100 µM | DU-145 > 100 µM | Hs-578T > 100 µM | MDA-N > 100 µM | KM12 > 100 µM | NCI/ADR-RES > 100 µM | A549 > 100 µM | OVCAR-4 > 100 µM | SNB-19 > 100 µM | SN12C > 100 µM | SK-OV-3 > 100 µM | HCC 2998 > 100 µM | HL-60 > 100 µM | T47D > 100 µM | SNB-75 > 100 µM | OVCAR-8 > 100 µM | SK-MEL-2 > 100 µM | NCI-H460 > 100 µM

Clc1sc(Cl)c2c1[C@@H](Cl)C[C@@H]2Cl
inactive: SF-268 62.1 µM | HT-29 > 100 µM | DU-145 > 100 µM | Hs-578T 38.1 µM | MDA-N > 100 µM | KM12 > 100 µM | NCI/ADR-RES > 100 µM | LOX IMVI 49.4 µM | A549 61.9 µM | OVCAR-4 74.3 µM | SN12C > 100 µM | SK-OV-3 > 100 µM | HCC 2998 63.4 µM | T47D 45.4 µM | SNB-75 33.3 µM | OVCAR-8 > 100 µM | SK-MEL-2 > 100 µM | NCI-H460 92.9 µM

c1ccc(B2OCC(C3OB(c4ccccc4)OC4COB(c5ccccc5)OC43)O2)cc1 (configuration not stated)
inactive: SF-268 > 100 µM | HT-29 > 100 µM | DU-145 > 100 µM | Hs-578T > 100 µM | MDA-N > 100 µM | KM12 > 100 µM | NCI/ADR-RES > 100 µM | LOX IMVI > 100 µM | A549 > 100 µM | OVCAR-4 > 100 µM | SNB-19 > 100 µM | SN12C > 100 µM | SK-OV-3 > 100 µM | T47D > 100 µM | SNB-75 > 100 µM | OVCAR-8 > 100 µM | SK-MEL-2 > 100 µM | NCI-H460 > 100 µM

O=C(/C=C/c1ccc(O)c(O)c1)OCCCOC(=O)/C=C/c1ccc(O)c(O)c1
inactive: SF-268 23.9 µM | HT-29 22.3 µM | DU-145 34.8 µM | Hs-578T 49.5 µM | MDA-N 17.5 µM | KM12 33.3 µM | NCI/ADR-RES 28.4 µM | LOX IMVI 12.4 µM | A549 31.3 µM | OVCAR-4 23.2 µM | SNB-19 31.4 µM | SN12C 28.1 µM | SK-OV-3 27.2 µM | HCC 2998 38.9 µM | T47D 35.6 µM | SNB-75 47.2 µM | OVCAR-8 22.8 µM | SK-MEL-2 41.8 µM | NCI-H460 21.8 µM

Cc1ncc([N+](=O)[O-])n1CCN(C)C(=O)CCCn1ccnc1[N+](=O)[O-]
inactive: SF-268 > 100 µM | HT-29 > 100 µM | DU-145 > 100 µM | Hs-578T > 100 µM | MDA-N > 100 µM | KM12 > 100 µM | NCI/ADR-RES > 100 µM | LOX IMVI > 100 µM | A549 > 100 µM | OVCAR-4 > 100 µM | SN12C > 100 µM | SK-OV-3 > 100 µM | HL-60 > 100 µM | T47D > 100 µM | SNB-75 > 100 µM | OVCAR-8 > 100 µM | SK-MEL-2 > 100 µM | NCI-H460 > 100 µM
